Source: patent US11459375B2, “Cyclic peptides for the treatment of Graves' disease” (advanceCOR GmbH, priority 2017, dated 2022)
Peptide text beside a SMILES is read from it.

Legend:
Ad-TSHR-immunized mice [1] = assay: retro-orbital fibrosis by digitized image analysis of orbital sections; assay type: in vivo, BALB/c mice; details: 1 mg/kg IV 4-weekly, Masson's stain
Description: FIG. 6 summarizes the results of histological investigation of orbital sections. […] The sections were taken at defined distances from the mouse bregma. Interstitial connective tissue was then stained in green (Masson's trichrome stain). For clarity, both HE stained sections (left panels) and Masson's stained sections (right panels) are shown next to each other. FIG. 6B: the effects of peptide therapy on severity of retro-orbital fibrosis were evaluated in histological sections of all available animals. The measurements were carried out in Ad-TSHR-immunized mice treated by either 4-weekly injections with vehicle (0.9% NaCl, “Graves' no therapy”, n=9 mice), or administrations of 1 mg/kg body weight of peptide 836 (11 mice) or TSHR-Fc (11 mice). […] The mean total fibrosis volumes of each right and left orbita, as assessed by digitized image analysis of all sections, and consecutive integrations, are shown with SEM. […]
After euthanasia, dissection of the thyroid glands was performed under a stereomicroscope, as described before (22). […] Thyroid volumes (mm^3) were calculated from the sum of the areas of each section over the whole cutting region. Myocardial volumes (mm^3) were calculated in a similar way as described for thyroid glands from the sum of the areas of each section over whole cutting region (5 to 6 slides, depending on respective size of the hearts). […]

Ad-TSHR-immunized mice [2] = assay: qualitative histological investigation of the thyroid; assay type: in vivo, BALB/c mice; details: 9x AdTSHR-treated mice, 1 mg/kg IV 4-weekly
Description: After euthanasia, dissection of the thyroid glands was performed under a stereomicroscope, as described before (22). Briefly, cross cuts at the level above the larynx and below the seventh cartilage ring were made and the glands with the tracheae and oesophagi were removed from the necks. Tissue blocks were kept in 4% neutral para-formaldehyde (PFA), washed in PBS 3 times and embedded in optimum cutting temperature (OCT) formulation (Tissue-Tek® O.C.T.™ compound, VWR Chemicals, Leuven, Belgium). Consecutive 5 μm-thick cross sections were cut at a fixed distance of 500 μm using a Leica microtome CM 1850 Cryostat (temperature at −19° C.) and mounted on Thermo Polysine slides (Thermo Scientific, Cat J2800AMNZ). The collected sections represented a total distance of ˜5-6 mm, and covered the whole thyroid region of each animal. The tissue sections were then stained with hematoxylin-eosin (HE) and examined using bright field illumination on a Zeiss upright microscope. Thyroid volumes (mm^3) were calculated from the sum of the areas of each section over the whole cutting region. Myocardial volumes (mm^3) were calculated in a similar way as described for thyroid glands from the sum of the areas of each section over whole cutting region (5 to 6 slides, depending on respective size of the hearts). The method has been described before (22). […]

CC[C@H](C)[C@@H]1NC(=O)[C@H](C(C)C)NC(=O)[C@H]([C@@H](C)O)NC(=O)[C@H](CC(C)C)NC(=O)[C@H](Cc2ccc(O)cc2)NC(=O)[C@H](CCCCN)NC(=O)[C@H](CC(N)=O)NC(=O)[C@H](CCCCN)NC(=O)[C@H](CC(N)=O)NC(=O)[C@H](CC(C)C)NC(=O)[C@H](Cc2ccc(O)cc2)NC(=O)[C@H](C(C)C)NC(=O)[C@H](C)NC(=O)[C@H](CC(=O)O)NC(=O)[C@H](CC(C)C)NC(=O)[C@H](CCCCN)NC(=O)[C@H]([C@@H](C)O)NC(=O)CNC(=O)[C@H](CC(N)=O)NC(=O)[C@H](Cc2ccccc2)NC(=O)[C@H](C)NC(=O)[C@H](Cc2ccc(O)cc2)NC(=O)CNC(=O)[C@H](CC(=O)O)NC1=O [peptide 836] (cyclo(GYAFNGTKLDAVYLNKNKYLTVID))
retro-orbital fibrosis (Ad-TSHR-immunized mice [1]): completely reversed

TSHR-Fc: fusion protein: first 289 amino acids of human TSH receptor (A-subunit), GGR linker and Fc portion of human IgG2
mean histological scores of the thyroid (Ad-TSHR-immunized mice [2]): markedly better compared to the vehicle-treated group
